Key:
[1] = molecular target: T1, BACE1-454 (extracellular domain of β-secretase) (Homo sapiens, UniProt P56817); test: Inhibitory action on BACE protein, fluorescence-quenched peptide substrate; type: biochemical; settings: final concentration: 10 μM; 37° C. for 63 hr; pH 5.5
T1 construct: made in house; host or cells: FreeStyle 293-F cells (HEK293), culture supernatant
Description: (§1) To 96 black well plate, 25 μl of 0.05 M acetate buffer (pH 5.5), 10 μl of 250 μM substrate (Nma-Ser-Glu-Val-Lys-Met-Asp-Ala-Glu-Lys(Dnp)-Arg-Arg-NH2; SEQ ID NO: 11), 10 μl of BACE1-474 (0.02 mg/ml) or BACE1-454 (0.01 mg/ml) obtained from the above-mentioned Reference Example 5 or a recombinant human BACE-1 (amino acid residues 1-460, R & D Systems) (0.025 mg/ml) commercially available as an extracellular domain, and 5 μl of each compound in 10% DMSO solution, and as a control, 5 μl of 10% DMSO were added respectively, and allowed to be reacted at 37° C. for 63 hr. After completion of the reaction, the fluorescence intensity (excitation wavelength at 325 nm, measurement wavelength at 460 nm) was measured with Fluoroscan ASCENT.

[2] = molecular target: T2, BACE1-474 (extracellular domain and transmembrane domain of β-secretase) (Homo sapiens, UniProt P56817); test: as above; type: biochemical; settings: final concentration: 10 μM; 37° C. for 63 hr; pH 5.5; read-out: inhibition rates on BACE1-474
T2 construct: made in house; host or cells: FreeStyle 293-F cells (HEK293)
Description: as §1

[3] = molecular target: T3, recombinant human BACE-1 (amino acid residues 1-460, R & D Systems) (Homo sapiens, UniProt P56817); test: as above; type: biochemical; settings: final concentration: 10 μM; 37° C. for 63 hr; pH 5.5
T3 construct: a recombinant human BACE-1 (amino acid residues 1-460, R & D Systems); purchased R & D Systems
Description: as §1

[4] = molecular target: T4, BACE1-471 (Homo sapiens, UniProt P56817); test: Inhibitory action on BACE1-471, fluorescence-quenched peptide substrate; type: biochemical; settings: pH 5.5; final concentration: 10 μM; 37° C. for 50 hr; pH5.5; read-out: inhibition rates on BACE1-471
T4 construct: made in house; host or cells: FreeStyle 293-F cells (HEK293)
Description: (§2) To 96 black well plate, 25 μl of 0.05M acetate buffer (pH5.5), 10 μl of 250 μM substrate (Nma-Ser-Glu-Val-Lys-Met-Asp-Ala-Glu-Lys(Dnp)-Arg-Arg-NH2; SEQ ID NO: 11), 10 μl of BACE1-471 (0.05 mg/ml) or BACE1-465 (0.04 mg/ml) obtained from the above-mentioned Reference Example 7, and 5 μl of 0.1 mM Compound A in 10% DMSO solution, and as a control, 5 μl of 10% DMSO were added respectively, and allowed to be reacted at 37° C. for 50 hr for BACE1-471 and for 22 hr for BACE1-465. After completion of the reaction, the fluorescence intensity (excitation wavelength at 325 nm, measurement wavelength at 460 nm) was measured with Fluoroscan ASCENT.

[5] = molecular target: T5, BACE1-465 (Homo sapiens, UniProt P56817); test: Inhibitory action on BACE1-465, fluorescence-quenched peptide substrate; type: biochemical; settings: final concentration: 10 μM; 37° C. for 22 hr; pH5.5
T5 construct: made in house; host or cells: FreeStyle 293-F cells (HEK293), culture supernatant
Description: as §2

[6] = molecular target: T6, BACE1-501 (Homo sapiens, UniProt P56817); test: Detection of binding by surface plasmon resonance (Biacore3000); settings: PBS containing 10% DMSO and 0.005% Surfactant P20
T6 construct: Expression of full-length β-secretase protein (BACE1-501) was performed with FreeStyle 293 Expression System; made in house; host or cells: FreeStyle 293-F cells (HEK293)
Source text: Biacore3000 (Biacore) was used for analysis by surface plasmon resonance. BACE1-501 and the recombinant human BACE-1 (amino acid residue 1-460) were immobilized to carboxyl groups on CM5 sensorchip (carboxymethylated dextran matrix chip) activated with N-hydrosuccinimide (NHS)/N-ethyl-N′-(3-dimethyl-aminopropyl)-carbodiimide hydrochloride (EDC) in acetate buffer at pH 4.5. BACE1-454 and BACE1-474 were immobilized by the same way in acetate buffer at pH 4.0. The binding of the compound and the enzymes was measured in PBS containing 10% DMSO and 0.005% Surfactant P20. The correction of the difference of Resonance Unit (RU) value among flow cells resulting from the bulk effect was carried out with a correction curve made using the buffers with the DMSO concentration varied from 9% to 11% in the five-graded. As a result, signals showing the binding of each compound to BACE1-501 and BACE1-474 were observed. On the other hand, for BACE1-454 and the recombinant human BACE-1 (amino acid residue 1-460), no signal was observed showing the binding.

T5 sequence (P56817 with tags, fused parts or gaps): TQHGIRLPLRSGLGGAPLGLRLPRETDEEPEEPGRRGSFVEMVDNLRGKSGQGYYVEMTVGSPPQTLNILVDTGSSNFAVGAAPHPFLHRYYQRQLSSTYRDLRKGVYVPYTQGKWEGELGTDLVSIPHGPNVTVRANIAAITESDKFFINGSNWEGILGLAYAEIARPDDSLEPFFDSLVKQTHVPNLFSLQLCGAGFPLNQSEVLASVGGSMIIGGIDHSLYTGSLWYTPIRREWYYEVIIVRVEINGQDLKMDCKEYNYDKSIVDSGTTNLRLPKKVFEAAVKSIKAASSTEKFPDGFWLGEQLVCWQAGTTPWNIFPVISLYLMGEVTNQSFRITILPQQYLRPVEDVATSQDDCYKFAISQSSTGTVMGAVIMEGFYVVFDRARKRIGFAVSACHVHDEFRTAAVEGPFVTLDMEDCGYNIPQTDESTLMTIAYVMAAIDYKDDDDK
T4 sequence (P56817 with tags, fused parts or gaps): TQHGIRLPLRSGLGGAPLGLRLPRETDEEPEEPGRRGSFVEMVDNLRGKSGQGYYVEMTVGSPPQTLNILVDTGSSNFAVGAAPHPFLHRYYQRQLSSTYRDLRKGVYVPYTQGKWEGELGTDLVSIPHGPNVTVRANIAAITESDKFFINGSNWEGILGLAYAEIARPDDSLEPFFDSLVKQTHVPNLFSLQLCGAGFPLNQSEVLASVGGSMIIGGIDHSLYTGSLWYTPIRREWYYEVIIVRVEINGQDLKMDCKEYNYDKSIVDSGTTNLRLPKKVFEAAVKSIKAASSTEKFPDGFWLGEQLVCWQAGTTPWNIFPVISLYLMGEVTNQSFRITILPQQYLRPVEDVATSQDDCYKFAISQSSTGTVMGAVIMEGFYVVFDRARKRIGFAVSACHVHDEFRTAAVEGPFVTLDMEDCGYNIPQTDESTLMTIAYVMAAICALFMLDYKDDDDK
T3 sequence (P56817 22-460): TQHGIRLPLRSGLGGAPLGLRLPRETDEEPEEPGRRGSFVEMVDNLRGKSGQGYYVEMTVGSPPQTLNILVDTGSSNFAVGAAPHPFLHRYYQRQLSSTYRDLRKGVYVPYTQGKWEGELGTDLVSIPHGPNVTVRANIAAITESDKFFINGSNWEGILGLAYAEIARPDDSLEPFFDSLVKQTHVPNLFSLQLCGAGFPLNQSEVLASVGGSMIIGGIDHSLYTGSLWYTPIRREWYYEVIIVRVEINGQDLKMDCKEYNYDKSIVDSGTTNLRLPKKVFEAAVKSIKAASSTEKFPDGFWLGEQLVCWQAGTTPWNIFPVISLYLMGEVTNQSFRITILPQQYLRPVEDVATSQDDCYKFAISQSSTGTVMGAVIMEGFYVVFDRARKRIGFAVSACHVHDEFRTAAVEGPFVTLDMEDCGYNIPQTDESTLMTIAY
T1 sequence (P56817 with tags, fused parts or gaps): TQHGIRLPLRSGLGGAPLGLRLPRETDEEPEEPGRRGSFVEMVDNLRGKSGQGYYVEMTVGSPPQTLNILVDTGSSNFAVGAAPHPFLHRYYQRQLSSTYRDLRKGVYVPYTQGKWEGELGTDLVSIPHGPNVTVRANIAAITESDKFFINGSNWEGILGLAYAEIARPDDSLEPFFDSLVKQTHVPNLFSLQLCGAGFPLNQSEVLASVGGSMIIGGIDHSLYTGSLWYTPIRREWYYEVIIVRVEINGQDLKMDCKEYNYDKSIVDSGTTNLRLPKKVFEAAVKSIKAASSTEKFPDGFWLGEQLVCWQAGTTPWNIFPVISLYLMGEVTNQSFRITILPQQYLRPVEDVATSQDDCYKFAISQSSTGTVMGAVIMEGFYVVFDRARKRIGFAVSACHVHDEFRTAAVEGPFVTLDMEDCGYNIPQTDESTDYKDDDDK
T2 sequence (P56817 with tags, fused parts or gaps): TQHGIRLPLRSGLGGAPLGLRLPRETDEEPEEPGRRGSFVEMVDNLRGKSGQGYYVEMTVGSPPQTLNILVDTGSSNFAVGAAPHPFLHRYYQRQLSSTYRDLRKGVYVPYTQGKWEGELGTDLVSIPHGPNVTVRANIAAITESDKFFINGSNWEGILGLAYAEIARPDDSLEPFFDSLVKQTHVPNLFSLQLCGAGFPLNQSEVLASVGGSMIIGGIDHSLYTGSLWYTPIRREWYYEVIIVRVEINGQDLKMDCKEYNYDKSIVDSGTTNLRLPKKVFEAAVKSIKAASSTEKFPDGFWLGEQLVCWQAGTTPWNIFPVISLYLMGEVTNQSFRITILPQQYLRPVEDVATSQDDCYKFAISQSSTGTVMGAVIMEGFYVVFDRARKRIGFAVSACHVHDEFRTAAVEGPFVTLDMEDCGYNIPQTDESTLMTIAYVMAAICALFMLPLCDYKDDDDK
T6 sequence (P56817 with tags, fused parts or gaps): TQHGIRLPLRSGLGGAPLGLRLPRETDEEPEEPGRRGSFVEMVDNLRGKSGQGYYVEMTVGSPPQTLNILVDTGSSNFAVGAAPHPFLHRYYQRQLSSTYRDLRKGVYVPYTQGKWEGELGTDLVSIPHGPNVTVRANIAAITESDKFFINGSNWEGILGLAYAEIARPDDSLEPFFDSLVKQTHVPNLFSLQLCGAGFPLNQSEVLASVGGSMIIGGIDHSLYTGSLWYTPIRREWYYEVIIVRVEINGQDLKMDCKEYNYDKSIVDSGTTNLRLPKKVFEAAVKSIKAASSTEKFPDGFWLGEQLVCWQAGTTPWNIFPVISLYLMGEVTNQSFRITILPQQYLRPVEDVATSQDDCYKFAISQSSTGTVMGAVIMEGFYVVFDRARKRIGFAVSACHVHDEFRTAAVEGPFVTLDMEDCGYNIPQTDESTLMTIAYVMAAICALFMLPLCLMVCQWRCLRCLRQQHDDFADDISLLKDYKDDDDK

inhibitory activity on BACE1-454 [1]	inhibition at 10 µM [2] [%]	inhibitory activity on the recombinant human BACE-1 [3]	inhibition at 10 µM [4] [%]	inhibitory activity on BACE1-465 [5]	SPR signal showing the binding to BACE1-501 [6]	SMILES
no inhibitory activity	30	no inhibitory activity	29	no inhibitory activity		CN(C)CC[C@@H]1CCc2cc(OCc3ccc(-c4ccccc4)cc3)ccc2C1 [Compound A]
no inhibitory activity	38	no inhibitory activity	42	no inhibitory activity		CCN(CC)CCC1CCc2cc(OCc3ccc(-c4ccccc4)cc3)ccc2C1 (centres unmarked) [Compound D]
no inhibitory activity	37	no inhibitory activity	48	no inhibitory activity	binding	Cc1ccc(-c2ccc(COc3ccc4c(c3)CC[C@@H](CCN(C)C)C4)cc2)cc1 [Compound J]
no inhibitory activity	34	no inhibitory activity	31	no inhibitory activity		C[N+](C)([O-])CC[C@@H]1CCc2cc(OCc3ccc(-c4ccccc4)cc3)ccc2C1 [Compound H]
no inhibitory activity	37	no inhibitory activity	70	no inhibitory activity		NCCC1CCc2cc(OCc3ccc(-c4ccccc4)cc3)ccc2C1 (centres unmarked) [Compound I]
